The structures appear in SMILES notation.

This experiment deals with T1, ACVRL1 (ALK1) (Homo sapiens, UniProt P37023).
T1 construct: purchased Thermo Fisher Scientific (Life Technologies) SelectScreen
Description: SelectScreen LanthaScreen. Format: binding. Particulars: read-out: % displacement. A digest of the protocol:
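NU5455 was profiled across the SelectScreen Broad panel of kinase activity and binding assays. Z'LYTE reactions such as CSF1R ran at apparent Km ATP, while the Adapta CAMK1 assay used ATP listed as 10. Values are given as percent.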

T1 sequence (P37023 22-503): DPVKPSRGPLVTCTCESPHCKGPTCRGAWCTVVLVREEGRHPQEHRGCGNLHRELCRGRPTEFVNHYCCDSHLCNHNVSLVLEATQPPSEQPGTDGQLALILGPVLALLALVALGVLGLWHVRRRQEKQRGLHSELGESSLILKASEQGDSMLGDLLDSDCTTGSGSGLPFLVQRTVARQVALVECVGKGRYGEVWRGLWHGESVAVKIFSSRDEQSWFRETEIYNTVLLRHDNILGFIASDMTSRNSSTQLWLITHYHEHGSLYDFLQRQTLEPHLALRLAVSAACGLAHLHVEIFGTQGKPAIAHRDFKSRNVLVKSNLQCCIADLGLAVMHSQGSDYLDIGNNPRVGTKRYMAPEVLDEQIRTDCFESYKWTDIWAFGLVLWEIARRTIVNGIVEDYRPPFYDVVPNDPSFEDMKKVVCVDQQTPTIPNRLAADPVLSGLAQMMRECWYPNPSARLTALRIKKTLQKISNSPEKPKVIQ

Take `CN(C(=O)CN1CCOCC1)c1ccc2sc3c(-c4cccc5c(=O)cc(N6CC7CCC(C6)O7)oc45)cccc3c2c1` [NU5455]: the inhibition at 1 µM is 2.3%.
